Key:
In vivo PK assay = test: In vivo PK assay; parameters: species or system Sprague-Dawley rats; settings: rats
Experimental: All animal experiments in this study have been approved by the Institutional Animal Care and Treatment Committee of Sichuan University in China and were carried out in accordance with the approved guidelines. Sprague-Dawley rats (weight 180–200 g, Beijing HJF bioscience, Beijing, China) were used in this experiment and maintained in a specific-pathogen-free (SPF) condition facility. RK-019 was dissolve in ethanol first, followed by mixed with Kolliphor EL, then filled with saline to the calculated volume. The formula was 12.5% ethanol, 12.5% Kolliphor EL, and 75% saline. RK-019 was administrated via i. v. 3 mg/kg or p. o. 30 mg/kg. After 5, 10, 15, 30, 60, 120, 240, 360, 600, and 1,440 min of administration, the blood samples were collected. Plasma fraction was obtained by centrifuged blood, then deproteinized with methanol containing an internal standard. The compound concentrations of the target compound in the supernatant were measured by liquid chromatography–mass spectrometry/mass spectrometry (LC-MS/MS).

SNU-16 xenograft = test: Subcutaneous xenograft model; assay type: in vivo, NOD/SCID mice
Experimental: NOD/SCID mice (6-week-old, weight 18–20 g, Beijing HJF bioscience) were used in this experiment and maintained in a specific-pathogen-free (SPF) condition facility. SNU-16 Cells were resuspended in PBS mixed with Matrigel (1:1) and adjust the density to 1×10^7 per mice (100 μL). The cell suspensions were inoculated subcutaneously on the right flank of the mice. When the mean tumor volume reached approximately 200 mm^3, the mice were divided into four groups (five mice each group): i. Vehicle group, ii. RK-019 15 mg/kg group, iii. RK-019 30 mg/kg group, and iv. RK-019 45 mg/kg group. RK-019 was dissolved in same formula as the in vivo PK study. RK-019 was administrated once per day by oral gavage for 21 days. Tumor volumes were measured three times per week. The tumor volume was measured by a caliper and calculated according to the following formula: Tumor volume=Major axis×Miner axis^2/2.
At the end of administration, the mice were executed euthanasia, then tumors, blood, and organs were extracted. The complete blood count (CBC), serum phosphorus analysis, and blood biochemical analysis were completed by West China Frontier Pharma Tech (Chengdu, China). The pathological section and IHC stanning was completed by Servicebio (Wuhan, China). The tumor growth inhibition (TGI) values were calculated with the following formula: TGI=(1−Tn−T0/Cn−C0)×100%.
Tn and T0 represent average tumor volume before treatment and that of day n after treatment in the treatment group. Cn and C0 represent average tumor volume before treatment and that of day n after treatment in the vehicle group. In this study, n is 21st day.

[1] = test system: FGFR2 phosphorylation and downstream proteins in SNU-16 cells; test: Western blot of FGFR signal proteins; assay type: cell-based
Experimental: (§1) The cells treated with RK-019 at indicated concentration for 24 h were harvested and lysed in 1× RIPA buffer (20e188, MilliporeSigma, Burlington, MA, United States), which contained protease inhibitor cocktail (B14001, Bimake, Houston, TX, United States) and phosphatase inhibitor cocktail (B15001, Bimake), for 30 min and equalized by concentration of the total protein before loading. Using sodium dodecyl sulphate - polyacrylamide gel electrophoresis (SDS-PAGE) to separate the protein sample and transfer to PVDF membranes (ISEQ00010, MilliporeSigma). The membranes were incubated with relevant primary antibody and corresponding HRP-labeled secondary antibody. Then, chemiluminescence was used to detect target bands. ImageJ software were used to make the gradation analysis.
(§2) In western blot, results analysis of relative phosphorylation quantification level, data were firstly calculated according to the following formular: Protein Relative phosphorylation data = Gp/Gup. Gp means the gradation level of target phosphorylation protein band and Gup means the gradation level of target total protein band. Then, the relative phosphorylation level can be calculated by the following formular: Protein Relative expression level = Pt/Pc ×100%. Pt means the relative phosphorylation data or target group and Pc means the relative phosphorylation data of control group.

[2] = test system: FGFR2 phosphorylation and downstream proteins in KATO III cells; test: Western blot of FGFR signal proteins; assay type: cell-based; settings: 24 h
Experimental: as §1, §2

SNU-16 cells = test: Transwell migration and invasion assay; assay type: cell-based; settings: SNU-16, 100 nM, 24 h
Experimental: (§3) In the migration assay, 1×10^5 cells were resuspended in a serum-free medium, then added into the upper chamber, meanwhile the medium containing 10% FBS was added at the bottom with 100 nM RK-019. After 24 h incubation, the migration cells on the filters were fixed with 4% paraformldehyde and washed with PBS, then stained with crystal violet solution for 20 min. In the invasion assay, the upper surface of the transwell was coated with Matrigel (356234, Corning) for 30 min at 37°C until Matrigel was solidified. 1×10^5 cells were resuspended in a serum-free medium, then added into the upper chamber, meanwhile the medium containing 10% FBS was added at the bottom with 100 nM RK-019.After 24 h , the invasion cells on the filters were hatched and fixed, then stained with crystal violet.

KATO III cells = test: Transwell migration and invasion assay; assay type: cell-based; settings: 100 nM, 24 h
Experimental: as §3

[3] = Sprague-Dawley, rat, plasma, iv, 3 mg/kg i.v
[4] = Sprague-Dawley, rat, plasma, po, 30 mg/kg p.o

## COc1cc(OC)cc(N(CCN[C@H](C)CO)c2ccc3ncc(-c4cnn(C)c4)c(=O)n3c2)c1 [RK-019, (R)-7-((3,5-dimethoxyphenyl) (2-((1-hydroxypropan-2-yl)amino)ethyl)amino)-3-(1-methyl-1H-pyrazol-4-yl)-4H-pyrido [1,2-a]pyrimidin-4-one]
In vivo PK assay; [3]
  AUC(0-t): 0.763 ± 0.0508 µg·h/mL
  Cmax: 0.461 ± 0.0478 µg/mL
  MRT: 1.64 ± 0.19 h
  half-life: 1.58 ± 0.29 h
In vivo PK assay; [4]
  AUC(0-t): 1.45 µg·h/mL
  Cmax: 0.235 ± 0.0778 µg/mL
  MRT: 4.49 ± 1.19 h
  Tmax: 2.67 ± 2.89 h
  half-life: 2.83 ± 0.37 h
In vivo PK assay; 30 mg/kg p.o
  F% (oral relative bioavailability): 19.00%
SNU-16 xenograft; 15 mg/kg oral once a day, 21 days
  TGI: 34.3%
SNU-16 xenograft; 30 mg/kg oral once a day, 21 days
  TGI: 85.9%
SNU-16 xenograft; 45 mg/kg oral once a day, 21 days
  TGI: 83.5%
SNU-16 xenograft; RK-019-treated group vs vehicle group, 21 days
  tumor weight: significant decrease
SNU-16 xenograft; after 21 days treatment
  number of cleaved-caspase 3-positive cells (IHC of tumor tissue): increased significantly
  number of p-FGFR2-positive and Ki67-positive cells (IHC of tumor tissue): decreased
[1]; SNU-16, 0.1, 1, 5, 10, and 100 nM, 24 h
  protein expression level of phosphorylated FGFR2 T653/T654: decreased
[1]; SNU-16, 24 h
  AKT and Erk phosphorylation levels: decreased
  FRS2 and PLCγ phosphorylation levels: significantly decreased
[2]; KATO III, 0.1, 1, 5, 10, and 100 nM
  protein expression level of phosphorylated FGFR2 T653/T654: decreased
[2]; KATO III
  AKT and Erk phosphorylation levels: decreased
  FRS2 and PLCγ phosphorylation levels: significantly decreased
SNU-16 cells
  migration and invasion ability: significantly suppress
KATO III cells
  migration and invasion ability: significantly suppress

Reference: article PMC9532703, “A novel small molecule RK-019 inhibits FGFR2-amplification gastric cancer cell proliferation and induces apoptosis in vitro and in vivo” (Frontiers in Pharmacology, 2022)
